Results from patent US20100298602A1, “SYSTEMS AND METHODS FOR MICROFLUIDIC CRYSTALLIZATION” (Massachusetts Institute of Technology, priority 2009, published 2010).

Experiment: Seeded continuous crystallization in a microfluidic device; growth rates from optical images
Settings: room temperature, water/ethanol antisolvent
[1] = Supersaturation S = ln(C/Cs,γ) = 0.319

In the case of NCC(=O)O [α-Glycine, glycine], the “G<010>,exp growth rate of <010> crystal plane” value (from here on “G<010>,exp growth rate”) (S = ln(C/Cs,α) = 0.33) is reported as 0.40 ± 0.25 μm/min, the “G<011>, exp growth rate of <011> crystal plane” value (“G<011>, exp growth rate” for short) (S = ln(C/Cs,α) = 0.33) is reported as 2.22 ± 0.91 μm/min and the “G<010>,exp growth rate” value (S = ln(C/Cs,α) = 0.56) is reported as 0.74 ± 0.16 μm/min. The “G<011>, exp growth rate” value (S = ln(C/Cs,α) = 0.56) was 3.34 ± 0.43 μm/min, the “G<010>,exp growth rate” value (S = ln(C/Cs,α) = 0.64) was 0.66 ± 0.23 μm/min and the “G<011>, exp growth rate” value (S = ln(C/Cs,α) = 0.64) was 4.78 ± 1.35 μm/min.
For NCC(=O)O [β-Glycine, glycine], the “G<010> experimental growth rate” value (S = ln(C/Cs,α) = 0.30) was 194 ± 55 μm/min, the “G<010> experimental growth rate” value (S = ln(C/Cs,α) = 0.39) was 235 ± 43 μm/min and the “G<010> experimental growth rate” value (S = ln(C/Cs,α) = 0.47) was 250 ± 52 μm/min.
For NCC(=O)O [γ-Glycine, glycine], the “G<00-1>,exp growth rate” value [1] was 4.4 ± 1.8 μm/min, the “G{100, 010},exp growth rate” value [1] was 3.2 ± 1.6 μm/min and the “G{100, 010},exp growth rate” value (Supersaturation S = ln(C/Cs,γ) = 0.389) was 5.5 ± 1.6 μm/min.
